From patent US8999957B2, “Heterocyclic compounds as ERK inhibitors” (Merck Sharp & Dohme Corp., priority 2010, dated 2015)

Legend:
[1] = target: ERK protein (Mus musculus, UniProt P63085); assay: TdF (Temperature Dependence Fluorescence, thermal shift) assay for ERK; format: binding; conditions: 3 μM ERK protein, uncertainty estimated ±50%, read-out: Kd TdF
From the text: Assays: TdF Assay for ERK […] The TdF assay was mainly conducted in the 96-well based CHROMO-4 real time fluorescence plate reader (BioRad). The Sypro Orange (Sigma-Aldrich), environmentally sensitive fluorescence dye, was used to monitor the protein folding-unfolding transition. Protein-ligand binding was gauged by the change (or shift) in the unfolding transition temperature (ΔTm) acquired at protein alone with respect to protein in the presence of ligand of interest. Compound of interest was first prepared in DMSO stock (typical concentration: 10 mM). […] Final percentage of DMSO resided in the sample was 2%. The sample plate was heated from 30° C. to 90° C. with thermal ramping rate of 1° C./min. […] The instrument thermal stability was ±0.2° C. The melting temperatures (Tm) for ERK protein under aforementioned conditions occurred at 61.0±0.2° C. and 64.8±02° C. respectively. Theoretical Basis for TdF-Based Ligand Binding Affinity Constant […] In brief, the binding constant of the ligand at the Tm is expressed as below: [formula] where T0 is the midpoint of unfolding for unliganded protein and Tm is the midpoint of unfolding in presence of ligand. [LTm] is free ligand at Tm. The ΔHu and ΔCpu are the enthalpy of unfolding and heat capacity change of unfolding for the protein respectively. Following algorithm derived by Winsor and coworker, the T0, ΔHu and ΔCpu can be determined separately from nonlinear regression fitting the protein alone melting curve: Where F(T) is the observed fluorescence intensity at any temperature T, Yn and Yu are the predicted fluorescence intensities for fully folded and unfolded protein, respectively; mn and mu are slope correction for changes in Yn and Yu with respect to changes in temperature (analogously replace T0 with Tm in the above equation for liganded protein to yield Tm). […] [formula] where ΔHL (T) is the van't Hoff enthalpy of ligand binding at temperature T and ΔCpL is the heat capacity upon ligand binding. For simplicity, the ΔCpL and ΔHL (T) were set to zero and −7 kcal/mol respectively.

[2] = target: fully phosphorylated, active Mouse ERK2 protein (Mus musculus (Mouse), UniProt P63085); assay: Active ERK2 (aERK) IMAP assay, condition 1; format: biochemical; conditions: aERK assay condition 1, 30 μM ATP
Description: Active ERK2 (aERK) Assay: (Unless Indicated Otherwise, the Data Provided for aERK was obtained using Condition 1)
Activated ERK2 activity was also determined in the IMAP assay format using the procedure outlined above. […] Reactions proceeded for 30 minutes before termination by addition of 60 μl IMAP detection beads in binding buffer. Plates were read as above after 30 minute binding equilibration.

ERK protein, sequence (P63085 2-358 limits assumed): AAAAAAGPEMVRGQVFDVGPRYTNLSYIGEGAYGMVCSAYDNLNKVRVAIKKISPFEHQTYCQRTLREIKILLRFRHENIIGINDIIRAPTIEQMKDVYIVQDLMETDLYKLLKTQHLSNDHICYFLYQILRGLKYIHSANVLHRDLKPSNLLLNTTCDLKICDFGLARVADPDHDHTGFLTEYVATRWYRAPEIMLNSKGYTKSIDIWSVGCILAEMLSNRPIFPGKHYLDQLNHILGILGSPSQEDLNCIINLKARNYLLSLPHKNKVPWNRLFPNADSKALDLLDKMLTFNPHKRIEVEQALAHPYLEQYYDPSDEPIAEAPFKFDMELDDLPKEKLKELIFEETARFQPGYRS
fully phosphorylated, active Mouse ERK2 protein, sequence (P63085 whole entry): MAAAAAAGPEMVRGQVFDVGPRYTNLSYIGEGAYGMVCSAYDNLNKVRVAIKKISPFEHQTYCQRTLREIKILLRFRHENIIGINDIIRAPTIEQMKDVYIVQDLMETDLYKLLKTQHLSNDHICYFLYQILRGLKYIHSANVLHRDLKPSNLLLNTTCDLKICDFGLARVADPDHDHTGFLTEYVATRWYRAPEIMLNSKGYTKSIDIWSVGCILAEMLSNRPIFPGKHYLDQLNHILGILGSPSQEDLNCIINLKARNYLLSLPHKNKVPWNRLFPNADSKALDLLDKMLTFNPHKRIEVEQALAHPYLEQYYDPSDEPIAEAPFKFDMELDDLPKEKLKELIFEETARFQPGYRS

| SMILES | Kd [1] | IC50 [2] |
| --- | --- | --- |
| O=C(N[C@@H]1CCCN(Cc2ccccn2)C1)c1ccc2[nH]nc(-c3ccc4c(c3)CCO4)c2c1 | 9.2 nM | 591 nM |
| N#Cc1ccc(CN2CCC[C@@H](NC(=O)c3ccc4[nH]nc(-c5ccc6c(c5)CCO6)c4c3)C2)cc1 | 82 nM | 1000 nM |
| O=C(N[C@@H]1CCCN(Cc2nccs2)C1)c1ccc2[nH]nc(-c3ccc4c(c3)CCO4)c2c1 | 10.5 nM | 251 nM |
| CN(C)c1ccc(CN2CCC[C@@H](NC(=O)c3ccc4[nH]nc(-c5ccc6c(c5)CCO6)c4c3)C2)cc1 | 1000 nM | 1000 nM |
| COc1cccc(F)c1CN1CCCC(NC(=O)c2ccc3[nH]nc(-c4ccc5c(c4)CCO5)c3c2)C1 (stereo not drawn) | 0.52 nM | 33 nM |
| Cn1cc(CN2CCC[C@@H](NC(=O)c3ccc4[nH]nc(-c5ccc6c(c5)CCO6)c4c3)C2)c2ccccc21 | 11 nM | 158 nM |
| CC(=O)Nc1cc(-c2n[nH]c3ccc(C(=O)N[C@@H]4CCCN(Cc5ccccc5F)C4)cc23)ccc1O | 0.48 nM | 74.7 nM |
| COc1cccc(F)c1CN1CCC[C@@H](NC(=O)c2ccc3[nH]nc(-c4ccc(O)c(NC(C)=O)c4)c3c2)C1 | 0.66 nM | 64.9 nM |
| CC(=O)Nc1cc(-c2n[nH]c3ccc(C(=O)N[C@@H]4CCCN(Cc5c(F)cccc5F)C4)cc23)ccc1O | 1.29 nM | 224 nM |
| COc1ccccc1CN1CCC[C@@H](NC(=O)c2ccc3[nH]nc(-c4ccc(O)c(NC(C)=O)c4)c3c2)C1 | 1.29 nM | 254 nM |
| CCCOc1ccccc1CN1CCC[C@@H](NC(=O)c2ccc3[nH]nc(-c4ccnc(C)c4)c3c2)C1 | 1.72 nM | 246 nM |
| COc1cccc(F)c1CN1CCC[C@@H](NC(=O)c2ccc3[nH]nc(-c4ccc5sccc5c4)c3c2)C1 | 0.15 nM | 807 nM |
| COc1cccc(F)c1CN1CCC[C@@H](NC(=O)c2ccc3[nH]nc(-c4ccc5occc5c4)c3c2)C1 | 0.21 nM | 495 nM |
| COc1cccc(F)c1CN1CCC[C@@H](NC(=O)c2ccc3[nH]nc(-c4ccc(S(=O)(=O)N(C)C)cc4)c3c2)C1 | 2.63 nM | 359 nM |
| COc1cccc(F)c1CN1CCC[C@@H](NC(=O)c2ccc3[nH]nc(-c4ccc(C(C)=O)cc4)c3c2)C1 | 0.9 nM | 189 nM |
| COc1cccc(F)c1CN1C[C@H](C)C[C@@H](NC(=O)c2ccc3[nH]nc(-c4ccc5nn(C)cc5c4)c3c2)C1 | 0.39 nM | 217 nM |
| COc1cccc(F)c1CN1CCC[C@@H](NC(=O)c2ccc3[nH]nc(-c4ccc5nc(C)sc5c4)c3c2)C1 | 0.1 nM | 78.5 nM |
| COc1cccc(F)c1CN1C[C@@H](NC(=O)c2ccc3[nH]nc(-c4ccc5nccn5c4)c3c2)CCC1=O | 17.7 nM | 663 nM |
| COC(=O)C1CC(NC(=O)c2ccc3[nH]nc(-c4ccnc(C)c4)c3c2)CN(Cc2c(F)cccc2OC)C1 (stereo not drawn) | 3.79 nM | 146 nM |
| Cc1cc(-c2n[nH]c3ccc(C(=O)N[C@@H]4CCCN(Cc5scnc5C)C4)cc23)ccn1 | 20.3 nM | 875 nM |
| COc1ccsc1CN1CCC[C@@H](NC(=O)c2ccc3[nH]nc(-c4ccnc(C)c4)c3c2)C1 | 0.97 nM | 137 nM |
| COc1cccc(F)c1CN1CC(NC(=O)c2ccc3[nH]nc(-c4ccc5nccn5c4)c3c2)CC(C(=O)O)C1 (stereo not drawn) | 0.26 nM | 64.7 nM |
| Cc1cc(-c2n[nH]c3ccc(C(=O)NC4CCCN(Cc5ncccn5)C4)cc23)ccn1 (stereo not drawn) | 130 nM | 923 nM |
| COc1cccc(F)c1CN1CC(CO)CC(NC(=O)c2ccc3[nH]nc(-c4ccc5nccn5c4)c3c2)C1 (stereo not drawn) | 1.68 nM | 140 nM |
| CN1CC(NC(=O)c2ccc3[nH]nc(-c4ccncc4)c3c2)CC(c2ccccc2)C1 (stereo not drawn) [drawing 219] | 1.4 nM | – |

Second part, the molecule after the results:

| Kd [1] | IC50 [2] | SMILES |
| --- | --- | --- |
| 106 nM | – | O=C(NC1CNCCC1c1cccc(F)c1)c1ccc2[nH]nc(-c3ccncc3)c2c1 (stereo not drawn) |
| 73 nM | – | O=C(NC1CCCCNC1=O)c1ccc2[nH]nc(-c3ccncc3)c2c1 (stereo not drawn) |
| 290 nM | – | O=C(NC1CN(C(=O)OCc2ccccc2)CCNC1=O)c1ccc2[nH]nc(-c3ccncc3)c2c1 (stereo not drawn) |
| 8 nM | – | O=C(Nc1ccc2[nH]nc(-c3ccncc3)c2c1)C1CNCC(c2ccccc2)C1 (stereo not drawn) |
| 0.8 nM | – | O=C(NC1CNCC(c2ccccc2)C1)c1ccc2[nH]nc(-c3ccncc3)c2c1 (stereo not drawn) |
| 76 nM | 626 nM | O=C(N[C@@H]1CCCN(Cc2ccncc2)C1)c1ccc2[nH]nc(-c3ccc4c(c3)CCO4)c2c1 |
| 0.4 nM | 19.8 nM | CCc1cc(-c2n[nH]c3ccc(C(=O)N[C@@H]4CCCN(Cc5ccccc5F)C4)cc23)ccn1 |
| 0.5 nM | 10.7 nM | Cc1cc(-c2n[nH]c3ccc(C(=O)N[C@@H]4CCCN(Cc5ccccc5F)C4)cc23)ccn1 |
| 6.6 nM | 507 nM | O=C(N[C@@H]1CCCN(Cc2ccccc2F)C1)c1ccc2[nH]nc(-c3ccnc(C(F)(F)F)c3)c2c1 |
| 0.052 nM | 16.4 nM | CC1CC(NC(=O)c2ccc3[nH]nc(-c4ccncc4)c3c2)CN(Cc2ccccc2F)C1 (stereo not drawn) |
| 2.36 nM | 140 nM | Cc1cc(-c2n[nH]c3ccc(C(=O)N[C@@H]4CCCN(Cc5ccccc5O)C4)cc23)ccn1 |
| 0.22 nM | 4.98 nM | COc1cccc(F)c1CN1CCC[C@@H](NC(=O)c2ccc3[nH]nc(-c4ccnc(C)c4)c3c2)C1 |
| 0.51 nM | 29.7 nM | Cc1cc(-c2n[nH]c3ccc(C(=O)N[C@@H]4CCCN(Cc5c(F)cccc5F)C4)cc23)ccn1 |
| 0.27 nM | 163 nM | COc1cccc(F)c1CN1CCC[C@@H](NC(=O)c2ccc3[nH]nc(-c4ccc5cn[nH]c5c4)c3c2)C1 |
| 1.38 nM | 286 nM | COc1cccc(F)c1CN1CCC[C@@H](NC(=O)c2ccc3[nH]nc(-c4cccc(NC(C)=O)c4)c3c2)C1 |
| 2.01 nM | 609 nM | COc1cccc(F)c1CN1CCC[C@@H](NC(=O)c2ccc3[nH]nc(-c4cccc(C(C)=O)c4)c3c2)C1 |
| 0.42 nM | 39.1 nM | COc1cccc(F)c1CN1CC(NC(=O)c2ccc3[nH]nc(-c4ccnc(C)c4)c3c2)CC(OC)C1 (stereo not drawn) |
| 4.12 nM | 992 nM | COc1cccc(F)c1CN1C[C@@H](NC(=O)c2ccc3[nH]nc(-c4ccnc(C)c4)c3c2)CCC1=O |
| 0.35 nM | 13.3 nM | [2H]C(c1c(F)cccc1OC)N1CCC[C@@H](NC(=O)c2ccc3[nH]nc(-c4ccnc(C)c4)c3c2)C1 (stereo partly drawn) |
| 1.89 nM | 234 nM | Cc1cc(-c2n[nH]c3ccc(C(=O)N[C@@H]4CCCN(Cc5ncccc5F)C4)cc23)ccn1 |
| 0.34 nM | 62.5 nM | [2H]C1(N2CCC[C@@H](NC(=O)c3ccc4[nH]nc(-c5ccnc(C)c5)c4c3)C2)CCc2ccccc21 (stereo partly drawn) |
| 4.4 nM | 128 nM | Cc1cc(-c2n[nH]c3ccc(C(=O)N[C@@H]4CCCN(C(C)c5ccccc5)C4)cc23)ccn1 (stereo partly drawn) |
| 4.8 nM | 98.8 nM | Cc1cc(-c2n[nH]c3ccc(C(=O)N[C@@H]4CCCN(CCc5ccccc5F)C4)cc23)ccn1 |
| 2.4 nM | 32.9 nM | Cc1cc(-c2n[nH]c3ccc(C(=O)N[C@@H]4CCCN(CC(=O)c5ccccc5F)C4)cc23)ccn1 |
| 85.2 nM | 527 nM | COc1cccc(F)c1CN1C[C@H]2C[C@@H]1[C@H](NC(=O)c1ccc3[nH]nc(-c4ccc5nn(C)cc5c4)c3c1)C2 |
| 3.29 nM | 881 nM | Cn1cc2cc(-c3n[nH]c4ccc(C(=O)NC5C[C@@H]6C[C@H]5N(Cc5c(F)cccc5F)C6)cc34)ccc2n1 (stereo partly drawn) |
